Results as given in patent US9199965B2, “Benzoimidazole derivatives and pharmaceutical composition comprising the same” (Daewoong Co., Ltd., priority 2005, dated 2015).

Legend:
rat TRPV1 = target: T1, rat TRPV1 (Rattus norvegicus, UniProt O35433); experiment: Assay for inhibitory activity against VR1 patch clamp activity (capsaicin current, inside-out patch); assay type: cell-based; settings: 1 μM compound with 10 μM capsaicin; rat TRPV1-transfected HEK293, inside-out patch; relative to capsaicin current before compound
T1 construct: expressed in transfected cells; host or cells: HEK293
T1 sequence (O35433 whole entry): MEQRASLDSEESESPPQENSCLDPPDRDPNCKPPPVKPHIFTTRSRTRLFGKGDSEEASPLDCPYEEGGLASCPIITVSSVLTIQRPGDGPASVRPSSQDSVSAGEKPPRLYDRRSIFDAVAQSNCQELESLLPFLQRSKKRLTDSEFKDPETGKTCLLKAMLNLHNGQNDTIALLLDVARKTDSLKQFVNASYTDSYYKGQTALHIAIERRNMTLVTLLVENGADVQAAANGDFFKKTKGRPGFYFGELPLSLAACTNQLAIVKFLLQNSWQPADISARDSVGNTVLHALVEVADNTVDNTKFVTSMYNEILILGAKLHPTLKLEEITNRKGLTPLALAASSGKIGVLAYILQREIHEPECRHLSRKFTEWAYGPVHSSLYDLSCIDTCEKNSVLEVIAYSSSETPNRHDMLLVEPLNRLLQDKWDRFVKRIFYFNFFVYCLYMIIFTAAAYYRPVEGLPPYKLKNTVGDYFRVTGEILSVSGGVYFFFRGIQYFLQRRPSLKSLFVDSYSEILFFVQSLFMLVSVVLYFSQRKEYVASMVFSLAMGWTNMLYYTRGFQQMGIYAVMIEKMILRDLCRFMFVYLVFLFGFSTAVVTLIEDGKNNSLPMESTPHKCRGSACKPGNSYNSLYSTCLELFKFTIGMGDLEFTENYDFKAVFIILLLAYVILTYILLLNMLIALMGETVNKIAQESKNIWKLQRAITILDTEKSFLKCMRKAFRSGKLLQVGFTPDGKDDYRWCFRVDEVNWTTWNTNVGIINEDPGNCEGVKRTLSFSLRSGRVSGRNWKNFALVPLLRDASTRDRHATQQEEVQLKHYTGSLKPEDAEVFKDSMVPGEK
Procedure: Each of the compounds synthesized in the examples were dissolved in dimethyl sulfoxide (DMSO) at a concentration of 10 mM. For use in the assay for inhibitory activity against patch clamp activity, the solutions were diluted to a concentration of 1 μM with the same physiological saline as in the pipette solution of Table 1, below.
2) Assay for Inhibitory Activity Against VR1 Patch Clamp Activity
In this experiment, changes in VR1 activity were recorded in current using an electrophysiological technique.
For use in this experiment, a rat TRPV1 cDNA was transfected into a subcultured HEK293 strain with the aid of lipofectamin.
The rat TRPV1 gene-transfected HEK293 cells were detached from the cell culture dishes with trypsin and distributed on a patch clamp recording chamber.
A cover glass slip on the bottom of the patch clamp recording chamber was treated for 15 min or longer with a […] poly-L-lysine solution so that the HEK cells would readily adhere thereto. Cellular membranes were ruptured at room temperature (˜25° C.) from randomly selected HEK cells to perform an inside-out patch clamp technique. 10 μM of capsaicin was fed into the chamber (cytoplasmic side) to activate a capsaicin current through the VR1. When the capsaicin current reached a stable stage, each compound was added along with 10 μM of capsaicin to record the inhibitory activity of the compounds with regard to the current. The inhibition was expressed as percentages.
Detected current was amplified using a Digidata 1200B A/D converter and an Axopatch 1D amplifier (Axon instruments Inc.), and the data were recorded and analyzed with the aid of a computer. The inhibitory activity of each compound was expressed as a percentage relative to the capsaicin current immediately before the administration of each compound.

human vanilloid-1 (hVR1) = target: T2, human vanilloid-1 (hVR1) (Homo sapiens, UniProt Q8NER1); experiment: Calcium influx of vanilloid receptor in hVR1-HEK293 cells (capsaicin-induced, Fluo-3/AM); assay type: cell-based; settings: 1 μM capsaicin-induced intracellular calcium influx, read-out: Inhibitory Activity IC50
T2 construct: expressed in transfected cells; host or cells: HEK293 Tet-on (hVR1-HEK293), doxycycline-induced
T2 sequence (Q8NER1 whole entry): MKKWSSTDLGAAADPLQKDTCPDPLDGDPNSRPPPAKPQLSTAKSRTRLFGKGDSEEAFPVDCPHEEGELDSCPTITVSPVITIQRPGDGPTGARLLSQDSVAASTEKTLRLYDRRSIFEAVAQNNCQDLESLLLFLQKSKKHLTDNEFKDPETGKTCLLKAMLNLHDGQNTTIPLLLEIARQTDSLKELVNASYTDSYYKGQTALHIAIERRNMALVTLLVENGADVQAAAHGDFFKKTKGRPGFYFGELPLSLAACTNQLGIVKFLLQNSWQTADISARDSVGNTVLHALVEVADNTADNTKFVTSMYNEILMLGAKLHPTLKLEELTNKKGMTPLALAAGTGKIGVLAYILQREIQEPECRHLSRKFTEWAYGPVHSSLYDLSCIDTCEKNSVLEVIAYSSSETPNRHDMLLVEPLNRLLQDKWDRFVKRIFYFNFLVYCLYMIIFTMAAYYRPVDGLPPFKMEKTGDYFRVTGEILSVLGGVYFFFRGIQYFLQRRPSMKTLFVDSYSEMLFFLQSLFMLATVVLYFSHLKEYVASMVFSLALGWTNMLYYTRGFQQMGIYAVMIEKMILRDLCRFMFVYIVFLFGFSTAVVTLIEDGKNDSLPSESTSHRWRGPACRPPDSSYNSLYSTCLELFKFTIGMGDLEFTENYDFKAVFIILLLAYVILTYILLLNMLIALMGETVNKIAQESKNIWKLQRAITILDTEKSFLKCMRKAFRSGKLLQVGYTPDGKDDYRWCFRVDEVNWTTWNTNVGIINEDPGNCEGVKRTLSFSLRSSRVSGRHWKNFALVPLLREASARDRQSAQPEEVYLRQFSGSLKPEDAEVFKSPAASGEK
Procedure: Experiments for calcium influx were performed to measure the activity of the compounds as antagonists.
The cell strain hVR1-HEK293 is the human embryonic kidney (HEK) 293 Tet-on cell transfected with a human vanilloid-1 gene (pTRE2hyg-hVR1, 7.8 kb), which is capable of controlling the expression of VR1 according to the administration of deoxycycline, a tetracycline derivative analog. In a medium supplemented with deoxycycline two days before calcium influx experiments, the cell strain was cultured to induce the expression of VR1. After being grown to a confluency of about 80% in T75 flasks, hVR1-HEK293 was detached from the flask using trypsin. Cells harvested by centrifugation were suspended in a medium supplemented with 1 μg/mL of deoxycycline and diluted to a density of 2-4×10^5 cells/mL, after which a 100 μL aliquot of the cell suspension was added to each well of 96 well black plates. Before the measurement of calcium influx, the cells were incubated for two days at 37° C. in a 5% CO2 incubator.
For use in calcium influx experiments, each compound was dissolved in dimethyl sulfoxide (DMSO).
To measure an intracellular calcium influx, cells were incubated at 37° C. for 90 min in a medium containing the calcium indicator Fluo-3/AM so as to allow the fluorescent dye to penetrate into the cells. Then, the cells were washed three times with D-PBS (Dulbecco's phosphate buffered saline) containing 10 mM HEPES to remove the fluorescent dye which remained outside. 193 μL aliquot of D-PBS was added to each well, followed by the addition of various concentrations of compounds thereto. In order to measure the antagonistic activity of the compounds, calcium influx was induced by treatment with 1 μM capsaicin. The inhibitory effect of each compound on 1 μM capsaicin-induced intracellular calcium influx according to compound concentration was measured using a fluorescent analyzer and the data thus obtained were analyzed on the basis of the Hill's equation.

[1] = system: ICR male mice (PBQ-induced writhing); experiment: PBQ-induced writhing test for analgesic effect; assay type: in vivo; settings: Mus musculus, 1 h, 20 mg/kg oral, one hour before intraabdominal PBQ (0.02%), read-out: % Inhibition (decrease in number of writhes compared to control)
Procedure: A PBQ-induced writhing test was conducted in mice to assay for the analgesic effect of the novel compounds. Five-week-old ICR male mice were treated with PBQ (phenyl-p-quinone, 0.02%). A suspension of 20 mg of test material in 10 mL of physiological saline was used per kg of weight of mice. Test materials in combination with a carrier were orally administered one hour before the intraabdominal injection of PBQ in a dose of 10 mL per kg weight. From 5 min after the injection, individual mice in each test group were measured for numbers of writhes at regular intervals of 10 min. Analgesic effects of test compounds were expressed as percentages of the decrease in number of writhes compared to a control. [% Inhibition=(Control administered with carrier alone−Group administered with test material)/control administered with carrier alone×100]

SMILES | inhibition at 1 µM (rat TRPV1) | IC50 (human vanilloid-1 (hVR1)) | inhibition in vivo at 20 mg/kg [1]
CC(C)(C)c1ccc2nc(-c3ccc(-c4ncccc4Cl)cc3)[nH]c2c1 [Compound 3, 6-tert-butyl-2-[4-(3-chloropyridin-2-yl)phenyl]-1H-benzoimidazole] | 100% | 61 nM | 58%
FC(F)(F)c1cc(Cl)c2nc(-c3ccc(-c4ncccc4Cl)cc3)[nH]c2c1 [Compound 6, 4-chloro-2-[4-(3-chloropyridin-2-yl)phenyl]-6-trifluoromethyl-1H-benzoimidazole] | 94% | 11 nM | 33%
CC(C)(C)c1ccc2nc(-c3ccc(-c4ncc(Cl)cc4Cl)cc3)[nH]c2c1 [Compound 25, 6-tert-butyl-2-[4-(3,5-dichloropyridin-2-yl)phenyl]-1H-benzoimidazole] | – | 100 nM | 23%
CS(=O)(=O)Nc1ccc(-c2ccc(-c3nc4c(C(F)(F)F)cc(C(F)(F)F)cc4[nH]3)cc2)cc1F [Compound 29, N-[4′-(4,6-bistrifluoromethyl-1H-benzoimidazole-2-yl)-3-fluorobiphenyl-4-yl]methanesulfonamide] | 50% | 4 nM | 41%
FC(F)(F)c1cc(C(F)(F)F)c2nc(-c3ccc(-c4ncccc4C(F)(F)F)cc3)[nH]c2c1 [Compound 33, 4,6-bistrifluoromethyl-2-[4-(3-trifluoromethylpyridin-2-yl)phenyl]-1H-benzoimidazole] | 10% | 10 nM | 31%
FC(F)(F)c1cccnc1-c1ccc(-c2nc3ccc(Br)cc3[nH]2)cc1 [Compound 37, 6-bromo-2-(4-(3-(trifluoromethyl)pyridin-2-yl)phenyl)-1H-benzoimidazole] | – | 75 nM | 50%
CC(C)(C)c1ccc2nc(-c3ccc(-c4ncccc4Cl)cc3F)[nH]c2c1 [Compound 67, 6-tert-butyl-2-[4-(3-chloropyridin-2-yl)-2-fluorophenyl]-1H-benzoimidazole] | 80% | 122 nM | 23%
FC(F)(F)c1ccc2nc(-c3ccc(-c4ncccc4C(F)(F)F)cn3)[nH]c2c1 [Compound 158, 3-trifluoromethyl-6′-(6-trifluoromethyl-1H-benzoimidazole-2-yl)-[2,3′]bipyridine] | 69% | 14 nM | 53%
FC(F)(F)c1cc(C(F)(F)F)c2nc(-c3ccc(-c4ncccc4C(F)(F)F)cn3)[nH]c2c1 [Compound 162, 6′-(4,6-bistrifluoromethyl-1H-benzoimidazole-2-yl)-3-trifluoromethyl-[2,3′]bipyridine] | 99% | 14 nM | 28%

More lines, in order of falling IC50 (human vanilloid-1 (hVR1)), values ahead:

inhibition at 1 µM (rat TRPV1) | IC50 (human vanilloid-1 (hVR1)) | SMILES | inhibition in vivo at 20 mg/kg [1]
100% | 130 nM | FC(F)(F)c1ccc2nc(-c3ccc(-c4ncccc4Cl)cc3)[nH]c2c1 [Compound 1, 2-[4-(3-Chloropyridin-2-yl)-phenyl]-6-trifluoromethyl-1H-benzoimidazole] | 33%
– | 94 nM | FC(F)(F)c1cc(Br)c2nc(-c3ccc(-c4ncccc4C(F)(F)F)cc3)[nH]c2c1 [Compound 36, 4-bromo-6-(trifluoromethyl)-2-(4-(3-(trifluoromethyl)pyridin-2-yl)phenyl)-1H-benzoimidazole] | 70%
– | 70 nM | Clc1cc2nc(-c3ccc(-c4ncccc4Cl)cc3)[nH]c2cc1Cl [Compound 12, 2-[4-(3-chloropyridin-2-yl)phenyl]-5,6-dichloro-1H-benzoimidazole] | 35%
89% | 38 nM | FC(F)(F)c1cc(C(F)(F)F)c2nc(-c3ccc(-c4ncccc4Cl)cn3)[nH]c2c1 [Compound 139, 6′-(4,6-bistrifluoromethyl-1H-benzoimidazole-2-yl)-3-chloro-[2,3′]bipyridine] | 26%
– | 28 nM | FC(F)(F)c1cccnc1-c1ccc(-c2nc3ccc(Br)cc3[nH]2)nc1 [Compound 165, 6-bromo-2-(5-(3-(trifluoromethyl)pyridin-2-yl)pyridin-2-yl)-1H-benzoimidazole] | 60%
78% | 24 nM | CC(C)(C)c1ccc2nc(-c3ccc(-c4ncccc4Cl)c4ccccc34)[nH]c2c1 [Compound 105, 6-tert-butyl-2-[4-(3-chloropyridin-2-yl)naphthalen-1-yl]-1H-benzoimidazole] | 50%
97% | 17 nM | FC(F)(F)c1cnc2nc(-c3ccc(-c4ncccc4Cl)c4ccccc34)[nH]c2c1 [Compound 107, 2-[4-(3-chloropyridin-2-yl)naphthalen-1-yl]-6-trifluoromethyl-1H-imidazo[4,5-b]pyridine] | 46%
73% | 16 nM | FC(F)(F)c1cc(Cl)c2nc(-c3ccc(-c4ncccc4Cl)cn3)[nH]c2c1 [Compound 138, 3-chloro-6′-(4-chloro-6-trifluoromethyl-1H-benzoimidazole-2-yl)-[2,3′]bipyridine] | 22%
– | 15 nM | FC(F)(F)c1cccnc1-c1ccc(-c2nc3cc(Cl)c(Cl)cc3[nH]2)nc1 [Compound 163, 6′-(5,6-dichloro-1H-benzoimidazole-2-yl)-3-trifluoromethyl-[2,3′]bipyridine] | 41%
– | 9 nM | FC(F)(F)c1cc(Br)c2nc(-c3ccc(-c4ncccc4C(F)(F)F)cn3)[nH]c2c1 [Compound 164, 4-bromo-6-(trifluoromethyl)-2-(5-(3-(trifluoromethyl)pyridin-2-yl)pyridin-2-yl)-1H-benzoimidazole] | 53%
66% | 8 nM | FC(F)(F)c1cc(Cl)c2nc(-c3ccc(-c4ncccc4C(F)(F)F)cc3)[nH]c2c1 [Compound 31, 4-chloro-6-trifluoromethyl-2-[4-(3-trifluoromethylpyridin-2-yl)phenyl]-1H-benzoimidazole] | 35%
